Experimental data published in patent US20250066507A1, “METHODS OF TREATING CANCER WITH A COMBINATION OF AN ANTI-PD-1 ANTIBODY AND AN ANTI-TISSUE FACTOR ANTIBODY-DRUG CONJUGATE” (Genmab A/S, priority 2018, published 2025).
Square brackets hold non-standard residues; d marks the D form. Peptide text beside a SMILES is read from it. * marks the point of attachment. Dolaproine = CO[C@@H]([C@@H]1CCCN1)[C@@H](C)C(=O)O; Dil = CC[C@H](C)[C@H](NC)[C@@H](CC(=O)O)OC; X1 = C[C@@H](N*)[C@@H](O)c1ccccc1; NMeV = CN[C@H](C(=O)O)C(C)C

How the values were obtained:
[1] = tested on: Tissue Factor positive cell lines; assay: Release of ICD molecules ATP and HMGB1 from Tissue Factor positive cells; format: cell-based; settings: for ATP secretion: FIG. 4A; for HMGB1 release: FIG. 4C
Text: Auristatin ADC payloads disrupt the microtubule networks resulting in altered ER localization and function, which ultimately results in ER stress. Cells exposed to Tissue Factor directed antibody linked to the monomethyl auristatin E payload (MMAE), i.e., tisotumab vedotin (an antibody drug conjugate or ADC), undergo cell death and as they do release the ICD related molecules ATP (FIG. 4A) and HMGB1 (FIG. 4C). The release of these molecules is specific to tisotumab vedotin ADC and MMAE treatment and occurs across multiple Tissue Factor positive cell lines (FIG. 4B).

[2] = tested on: HPAFII (pancreatic carcinoma); assay: Western blot of ER stress pathways in HPAFII cells; format: cell-based; settings: 18 hours (FIG. 5 legend: 16 hours)
Experimental: (§1) Induction of cell death and release of ICD danger signals occurs concomitant with initiation of an ER stress response. Two Tissue Factor positive cell lines, HPAFII (pancreatic carcinoma) and MDA-MB-231 (breast cell carcinoma) were exposed to tisotumab vedotin ADC, an Isotype-MMAE ADC (H00-MMAE, IgG1 MMAE), or free MMAE for 18 hours and induction of ER stress monitored by western blot analysis. Phosphorylation of inositol-requiring transmembrane kinase/endonuclease 1 (IRE1) was detected after treatment with tisotumab vedotin ADC or MMAE free drug (FIG. 5). […] The ability for auristatins to prime the immune system to recognize tumor antigens opens the door for a myriad of combinatorial therapeutic options.

HeLa cells [3] = assay: Western blot of ER stress signalling in MMAE-treated HeLa cells; format: cell-based; settings: 100 nM MMAE, 16 hours
Experimental: HeLa cells, a cervical cancer cell line, were cultured in Minimum Essential Medium (MEM) with 10% FBS, 10 mM HEPES, 1 mM sodium pyruvate, 2 mM L-glutamine, penicillin (100 U/ml), and streptomycin (100 μg/ml). HeLa cells were treated with 100 nM MMAE for 16 hours and harvested in radioimmunoprecipitation assay buffer (RIPA) buffer for western blot analysis. […] Severe ER stress is a prerequisite to the exposure of pro-phagocytic signals on the surface of tumor cells, and can be indicated by activation of JNK signaling by phosphorylated IRE1.

T cells = assay: T cell activation in CSFE labeled PBMCs fed drug-killed MDA-MB-231 cells, with or without nivolumab; format: cell-based, human; settings: for T cell proliferation (CSFE dilution) / IFNγ production / IL12p70 production: MDA-MB-231 cells exposed to the agent; for T cell proliferation (CSFE dilution): fed to CSFE labeled human PBMCs for 48 hours; for IFNγ production / IL12p70 production: fed to human PBMCs for 48 hours
Text: Induction of the innate immune response following exposure to cancer cells undergoing ICD sets up secondary T cell activation, which can be enhanced by concomitant anti-PD1 treatment.

[4] = tested on: MDA-MB-231 (breast cell carcinoma); assay: Western blot of ER stress pathways in MDA-MB-231 cells; format: cell-based; settings: 18 hours (FIG. 5 legend: 16 hours)
Experimental: as §1

[5] = tested on: CD14+ monocyte/macrophages; assay: Monocyte/macrophage activation in PBMCs fed drug-killed MDA-MB-231 cells; format: cell-based; settings: MDA-MB-231 cells killed with the agent, fed to human PBMCs; for monocyte/macrophage activation monitored by CD86 expression: flow cytometry
Text: FIGS. 6A and 6B is a series of graphs in which Tissue Factor positive MDA-MB-231 cells killed with various agents were fed to human peripheral blood mononuclear cells (PBMCs) and immune activation assessed by increased expression of activations markers on innate CD14+ monocyte/macrophages and induction of chemokine and cytokine production.
Immunogenic cell death, as mediated by MMAE, is regulated cell death that activates adaptive immune responses against antigens from dead and dying tumor cells, and allows for the generation of robust innate immune cell activation and subsequent cytotoxic T cell responses targeted towards specific tumor cell antigens. […] Furthermore, these monocyte/macrophages conditioned by ICD-killed cells promote activation of T cells, as evidenced by production of signature inflammatory cytokines associated with cytotoxic T cell responses.

wild-type tumor cells = assay: Syngeneic model: immunization with drug-killed human TF positive tumor cells, then tumor challenge; format: in vivo, Balb/c mice; settings: for survival after challenge / tumor growth after challenge: Balb/c mice immunized with human TF positive tumor cells killed by the agent, challenged s.c. with 5×10^6 wild-type tumor cells
Experimental: Mouse tumor cells are transfected with plasmid constructs encoding human tissue factor (TF) and sgRNA-guided Cas9 nuclease (sgRNA/Cas9) to generate a murine cell line that expresses the human TF. Fluorescence activated cell sorting (FACS) yields a clonal population of murine tumor cells that stably express human TF, these cells are then treated with lpg to 5 μg per ml of tisotumab vedotin or 100 nM of MMAE for 4 days. In order to prepare dying cells for immunization, treated murine tumor cells are overlaid atop Histopaque, and centrifuged at 2000 g for 30 minutes. Dead and dying cells are pelleted underneath the Histopaque layer, and viability assessed by trypan blue exclusion. A sample with approximately <20% live cells as measured by trypan blue exclusion is obtained. Flash-frozen tumor cells are prepared by submerging the cells in liquid nitrogen for 10 seconds, followed by immersion in 37° C. water until completely thawed. The liquid nitrogen freeze-thaw process is repeated 5 times. Dead and dying human TF positive tumor cells are resuspended in phosphate buffered saline (PBS) and 2×10^6 cells are injected into the peritoneum of immune-competent Balb/c mice. Seven days later, mice receive a second immunization with dead and dying cells prepared in the same manner.
Fourteen days after initial immunization with the dead and dying human TF positive tumor cells, mice are subcutaneously implanted with 5×10^6 wild-type tumor cells and monitored for tumor growth. […] As these effects occur in the absence of any administered therapeutic agent, the administration of cells killed by tisotumab vedotin or MMAE is sufficient to generate long-lasting protective immune memory against subsequent tumor cell challenge. Protective immune memory is amplified by treating these mice with tisotumab vedotin in combination with an antibody that binds to murine PD-1. This combination treatment increases the number of mice that are cured by subsequent tumor challenge.

HeLa cells [6] = assay: ATP and HMGB1 secretion from MMAE-treated HeLa cells; format: cell-based; settings: 100 nM MMAE, over 24 hours, versus untreated cells
Text: Induction of ICD is also characterized by the secretion of ATP and HMGB1. Extracellular ATP serves as a strong chemotactic signal, promoting immune cell migration to the tumor site. Upon arrival, extracellular HMGB1 signals through various pro-inflammatory receptors (TLR2, TLR4, RAGE) to activate antigen-presenting cells, thereby promoting immune activity within the tumor.

HeLa cells [7] = assay: Live imaging of RFP-tubulin and ER-ID Green in MMAE-treated HeLa cells; format: cell-based; settings: 100 nM MMAE, imaged over time
Experimental: Treatment of HeLa cells with MMAE led to disassembly of the microtubule network and subsequent ER mislocalization. HeLa cells were transduced with a baculovirus encoding RFP-labeled Tubulin (CellLight Tubulin-RFP, ThermoFisher Scientific) and an ER-binding dye (ER-ID Green, Enzo Life Sciences). Cells were treated with 100 nM MMAE and imaged over time in the present of MMAE. Within 2 hours, fragmentation and disassembly of the microtubule network became evident, concurrent with the breakdown of the perinuclear organized ER lattice (FIGS. 2A and B). The condensed and mislocalized ER skeleton indicated severe ER stress within 8 hours.

advanced cervical cancer = settings: 240 mg Q2W, 19 patients with previously treated; cited from earlier work
[8] = concomitant nivolumab treatment, 48 hours

Compound	ATP secretion [1]	HMGB1 release [1]	ATF4 cleavage (PERK pathway) [2]	activation of JNK (phosphorylation) [2]	phosphorylation of IRE1 [2]	T cell proliferation (CSFE dilution) (T cells)	IFNγ production (T cells)	IL12p70 production (T cells)	ATF4 cleavage (PERK pathway) [4]	activation of JNK (phosphorylation) [4]	phosphorylation of IRE1 [4]	release of innate chemokines including MIP10 [5]	monocyte/macrophage activation monitored by CD86 expression [5]	survival after challenge (wild-type tumor cells)	tumor growth after challenge (wild-type tumor cells)	also measured
CC[C@H](C)[C@@H]([C@@H](CC(=O)N1CCC[C@H]1[C@H](OC)[C@@H](C)C(=O)N[C@H](C)[C@@H](O)c1ccccc1)OC)N(C)C(=O)[C@@H](NC(=O)[C@@H](NC)C(C)C)C(C)C [MMAE, monomethyl auristatin E] (H-[NMeV]V[Dil][Dolaproine]-X1)	robust	robust	upregulation of ATF4 cleavage	increased phosphorylation	detected	drove T cell proliferation	increased	increased	upregulation of ATF4 cleavage	increased phosphorylation	detected	induced release	drove monocyte/macrophage activations	increased survival	delayed tumor growth	phosphorylation of IRE1 (HeLa cells [3]): led to phosphorylation; phosphorylation of JNK (HeLa cells [3]): phosphorylation of IRE1 and JNK; secretion of ATP (HeLa cells [6]): increased secretion; secretion of HMGB1 (HeLa cells [6]): increased secretion; time until condensed and mislocalized ER skeleton indicated severe ER stress (HeLa cells [7]): ≤ 8 h; time until fragmentation and disassembly of the microtubule network and breakdown of the perinuclear ER lattice became evident (HeLa cells [7]): ≤ 2 h
nivolumab: anti-PD-1 antibody, a checkpoint inhibitor	–	–	–	–	–	–	–	–	–	–	–	–	–	–	–	effect of nivolumab on T cell proliferation driven by tisotumab vedotin or MMAE killed cells (T cells; 2 mg/ml of nivolumab, 48 hours): enhanced; effect of concomitant nivolumab on IFNγ production after tisotumab vedotin and MMAE killed cells (T cells; [8]): increased; effect of concomitant nivolumab on IL12p70 production after tisotumab vedotin and MMAE killed cells (T cells; [8]): increased; objective response rate (advanced cervical cancer): 26%
tisotumab	–	–	–	–	–	did not elicit these responses	did not elicit these responses	did not elicit these responses	–	–	–	–	–	–	–	–
tisotumab vedotin	robust	robust	upregulation of ATF4 cleavage	increased phosphorylation	detected	drove T cell proliferation	increased	increased	upregulation of ATF4 cleavage	increased phosphorylation	detected	induced release	drove monocyte/macrophage activations	increased survival	delayed tumor growth	activity (release of ICD molecules) on multiple Tissue Factor positive cell lines ([1]; FIG. 4B): active; number of mice cured by subsequent tumor challenge (wild-type tumor cells; immunized mice treated with tisotumab vedotin in combination with an antibody that binds to murine PD-1): increases
